Data: patent US20230192617A1, “AZABICYCLIC(THIO)AMIDES AS FUNGICIDAL COMPOUNDS” (Bayer CropScience Aktiengesellschaft, priority 2020, published 2023)

Assays:
[1] = test system: Botrytis cinerea; experiment: In vivo preventive test on Botrytis cinerea (grey mould); settings: 500 ppm of active ingredient, preventive spray on gherkin or cabbage, evaluated 4 to 5 days after inoculation, read-out: efficacy
How it was run: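 Young gherkin or cabbage plants were sprayed with compound in DMSO/acetone/Tween 80 diluted in water, then inoculated 24 hours later with a B. cinerea spore suspension. Incubation lasted 4 to 5 days: gherkin at 17° C., 90% relative humidity; cabbage at 20° C., 100% relative humidity.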

[2] = test system: Colletotrichum lindemuthianum; experiment: B-8. Colletotrichum lindemuthianum in vitro cell test; format: cell-based; settings: 144 h, 20 ppm of active ingredient, 6 days incubation, liquid culture, absorbance, read-out: efficacy (inhibition of fungal growth)
How it was run: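 Spore suspension of C. lindemuthianum in liquid medium exposed to DMSO-solubilized compounds (final DMSO ≤1%) for 6 days. Mycelial growth read by absorbance, with inhibition calculated relative to compound-free control wells.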

[3] = test system: Pyrenophora teres; experiment: In vivo preventive test on Pyrenophora teres (net blotch on barley); settings: 240 h, 500 ppm of active ingredient, preventive spray on barley, evaluated 10 days after inoculation, read-out: efficacy
Description: B-3. In Vivo Preventive Test on Pyrenophora Teres (Net Blotch on Barley) [table] The active ingredients were made soluble and homogenized in a mixture of Dimethyl sulfoxide/Acetone/Tween® 80 and then diluted in water to the desired concentration. The young plants of barley were treated by spraying the active ingredient prepared as described above. Control plants were treated only with an aqueous solution of Acetone/Dimethyl sulfoxide/Tween® 80. After 24 hours, the plants were contaminated by spraying the leaves with an aqueous suspension of Pyrenophora teres spores. The contaminated barley plants were incubated for 48 hours at 20° C. and at 100% relative humidity and then for 8 days at 20° C. and at 70-80% relative humidity.

[4] = Measurement of Log P values by HPLC on reversed phase columns (EEC directive 79/831 Annex V.A8); format: physicochemical; settings: reversed phase HPLC column, method [a]: LC-UV, acidic range, 0.1% formic acid in water and acetonitrile as eluent
How it was run: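 Reversed-phase HPLC with UV detection per EEC 79/831 Annex V.A8, linear 10–95% acetonitrile gradient. Aqueous eluent: 0.1% formic acid (acidic), 0.001 M ammonium acetate (neutral), or 0.1% phosphoric acid (acidic); multiple values in one method joined by "+".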

[5] = test system: Sphaerotheca fuliginea; experiment: In vivo preventive test on Sphaerotheca fuliginea (powdery mildew on cucurbits); settings: Podosphaera fuliginea, 192 h; 500 ppm of active ingredient; preventive spray on gherkin; evaluated 8 days after inoculation; read-out: efficacy
How it was run: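 Young gherkin plants were sprayed with compound in DMSO/acetone/Tween 80 diluted in water. They were inoculated 24 h later with a spore suspension of Sphaerotheca fuliginea. Plants were then kept for 8 days at 20 °C and 70–80% relative humidity.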

[6] = test system: Alternaria alternata; experiment: Alternaria alternata in vitro cell test; format: cell-based; settings: 120 h, 20 ppm of active ingredient, liquid culture, 5 days incubation, spectrometric measurement of mycelium growth, read-out: efficacy (inhibition of fungal growth)
How it was run: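 Liquid culture assay in which A. alternata spores in medium received DMSO-solubilized compound (final DMSO ≤1%). After 5 days, mycelium growth was measured spectrometrically. Inhibition was calculated against fungicide-free control wells.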

[7] = test system: Alternaria brassicae; experiment: In vivo preventive test on Alternaria brassicae (leaf spot on radish or cabbage); settings: 500 ppm of active ingredient, preventive spray on radish or cabbage, evaluated 3 to 4 days after inoculation, read-out: efficacy
How it was run: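 Young radish or cabbage plants were sprayed with compound dissolved in DMSO/acetone/Tween 80 and diluted in water; controls received solvent only. Inoculation by spraying A. brassicae spore suspension 24 h later, then 3–4 days at 20 °C and 100% relative humidity.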

[8] = test system: Botrytis cinerea; experiment: B-11. Botrytis cinerea in vitro cell test; format: cell-based; settings: 144 h, 20 ppm of active ingredient, 6 days incubation, liquid culture, absorbance, read-out: efficacy (inhibition of fungal growth)
How it was run: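 B. cinerea spores were grown in liquid culture with compound (DMSO ≤1% final). Mycelium growth was measured spectrometrically after 6 days, with inhibition taken as absorbance relative to untreated control wells.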

[9] = test system: Colletotrichum lindemuthianum; experiment: In vivo preventive test on Colletotrichum lindemuthianum (leaf spot on bean); settings: 168 h, 500 ppm of active ingredient, preventive spray on bean, evaluated 7 days after inoculation, read-out: efficacy
Description: B-5. In Vivo Preventive Test on Colletotrichum lindemuthianum (Leaf Spot on Bean) [table] The active ingredients were made soluble and homogenized in a mixture of Dimethyl sulfoxide/Acetone/Tween® 80 and then diluted in water to the desired concentration. The young plants of bean were treated by spraying the active ingredient prepared as described above. Control plants were treated only with an aqueous solution of Acetone/Dimethyl sulfoxide/Tween® 80. After 24 hours, the plants were contaminated by spraying the leaves with an aqueous suspension of Colletotrichum lindemuthianum spores. The contaminated bean plants were incubated for 24 hours at 20° C. and at 100% relative humidity and then for 6 days at 20° C. and at 90% relative humidity.

[10] = test system: Pyrenophora teres; experiment: B-10. Pyrenophora teres in vitro cell test; format: cell-based; settings: 144 h, 20 ppm of active ingredient, 6 days incubation, liquid culture, absorbance, read-out: efficacy (inhibition of fungal growth)
How it was run: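 Liquid-culture assay on a P. teres spore suspension with compounds added to the medium from DMSO solutions, final DMSO ≤1%. Mycelium growth read spectrometrically after 6 days. Inhibition calculated from absorbance against untreated control wells.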

chromatographic logP [4] | SMILES | pest or weed control at 500 ppm [1] [%] | inhibition at 20 ppm [2] [%] | pest or weed control at 500 ppm [3] [%] | pest or weed control at 500 ppm [5] [%] | inhibition at 20 ppm [6] [%] | pest or weed control at 500 ppm [7] [%] | inhibition at 20 ppm [8] [%] | pest or weed control at 500 ppm [9] [%] | inhibition at 20 ppm [10] [%]
4.15 | Cc1ccc(C(F)(F)CNC(=O)c2c(Oc3cccc(C(F)(F)F)c3)nnc3cnccc23)c(C)c1 [I-162] |  | 90 to 100 | 70 to 79 |  | 90 to 100 | 90 to 100 | 90 to 100 |  | 90 to 100
4.28 | CCN(CCc1ccccc1)C(=O)c1c(Oc2cccc(C(F)(F)F)c2)nnc2ccccc12 [I-205] | 80 to 89 |  | 80 to 89 | 70 to 79 |  |  |  |  | 
3.18 | Cc1ccc(C(F)(F)CNC(=O)c2c(Oc3cccc(C(F)(F)F)c3)nnc3c2CC(O)CC3)c(C)c1 (stereo not drawn) [I-117] | 90 to 100 | 90 to 100 |  | 90 to 100 | 90 to 100 | 70 to 79 | 90 to 100 | 90 to 100 | 

Continued, compound first:

SMILES | chromatographic logP [4] | pest or weed control at 500 ppm [1] [%] | inhibition at 20 ppm [2] [%] | pest or weed control at 500 ppm [3] [%] | pest or weed control at 500 ppm [5] [%] | inhibition at 20 ppm [6] [%] | pest or weed control at 500 ppm [7] [%] | inhibition at 20 ppm [8] [%] | pest or weed control at 500 ppm [9] [%] | inhibition at 20 ppm [10] [%]
Cc1ccc2c(C(=O)NC[C@H](F)c3ccc(Cl)cc3Cl)c(Oc3cccc(C(F)(F)F)c3)nnc2c1 (racemic) [I-047] | 4.45 | 90 to 100 | 90 to 100 | 80 to 89 | 90 to 100 | 90 to 100 | 90 to 100 |  |  | 
Cc1ccc([C@@H](F)CNC(=O)c2c(Oc3cccc(Cl)c3)nnc3ccccc23)c(Cl)c1 (racemic) [I-052] | 4.19 | 90 to 100 | 90 to 100 |  | 90 to 100 | 90 to 100 | 90 to 100 | 90 to 100 | 90 to 100 | 
Cc1ccc2c(C(=O)NC[C@H](F)c3ccc(Br)cc3Cl)c(Oc3cccc(C(F)(F)F)c3)nnc2c1 (racemic) [I-046] | 4.57 | 90 to 100 | 90 to 100 |  | 90 to 100 | 90 to 100 | 90 to 100 |  | 90 to 100 | 
C=Cc1ccc(C(F)(F)CNC(=O)c2c(Oc3cccc(C(F)(F)F)c3)nnc3ccccc23)c(Cl)c1 [I-064] | 4.62 | 90 to 100 | 90 to 100 | 80 to 89 |  | 90 to 100 | 90 to 100 | 90 to 100 |  | 
Cc1ccc([C@@H](F)CNC(=O)c2c(Oc3cccc(C(F)(F)F)c3)cnc3ccccc23)c(Cl)c1 (racemic) [I-060] | 4.4 | 90 to 100 | 90 to 100 |  | 90 to 100 | 90 to 100 | 90 to 100 | 90 to 100 | 90 to 100 | 
Cc1ccc(C(F)(F)CNC(=O)c2c(Oc3cccc(C(F)(F)F)c3)nnc3c2OCCO3)c(C)c1 [I-106] | 3.37 | 90 to 100 | 90 to 100 |  | 90 to 100 | 90 to 100 | 90 to 100 |  | 90 to 100 | 
